Measured values: ChEMBL document CHEMBL1201862, “PubChem BioAssay data set” (2004)
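Protocol summary: plate cells (96-well), add compound at 5 concentrations, incubate 48 h, interpolate endpoints linearly. GI50 is the concentration that inhibits growth by half.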 Calls of active or inactive are those of the source. Rule as the data show it: active = GI50 up to about 1.1 µM and inactive = higher.

What was measured:
Assay in all cases: inhibition of tumour cell growth, NCI panel, 48 h
786-0 = tested on: 786-0
A498 = tested on: A498
ACHN = tested on: ACHN
CAKI-1 = tested on: CAKI-1
DU-145 = tested on: DU-145
M14 = tested on: M14
MCF7 = tested on: MCF7
MDA-MB-231 = tested on: MDA-MB-231
MDA-MB-435 = tested on: MDA-MB-435
MDA-N = tested on: MDA-N
NCI-H23 = tested on: NCI-H23
PC-3 = tested on: PC-3
TK-10 = tested on: TK-10
Hs-578T = tested on: Hs-578T
RPMI-8226 = tested on: RPMI-8226
SR = tested on: SR
T47D = tested on: T47D

Compound | GI50 (786-0) | GI50 (A498) | GI50 (ACHN) | GI50 (CAKI-1) | GI50 (DU-145) | GI50 (M14) | GI50 (MCF7) | GI50 (MDA-MB-231) | GI50 (MDA-MB-435) | GI50 (MDA-N) | GI50 (NCI-H23) | GI50 (PC-3) | GI50 (TK-10) | GI50 (Hs-578T) | GI50 (RPMI-8226) | GI50 (SR) | GI50 (T47D)
c1ccc(OCc2nnc(CCCCCCCCc3nnc(COc4ccccc4)o3)o2)cc1 | 47.5 µM (inactive) | > 100 µM (inactive) | > 100 µM (inactive) | > 100 µM (inactive) | > 100 µM (inactive) | > 100 µM (inactive) | > 100 µM (inactive) | 47.6 µM (inactive) | > 100 µM (inactive) | > 100 µM (inactive) | 65.9 µM (inactive) | > 100 µM (inactive) | > 100 µM (inactive) |  |  |  | 
CN1C(=O)CC(=O)N1/C(=C/c1ccccc1)c1ccccc1 |  |  | 54.1 µM (inactive) | 23.7 µM (inactive) | > 100 µM (inactive) | 65.8 µM (inactive) | 47.2 µM (inactive) | 12.6 µM (inactive) | 66.8 µM (inactive) | > 100 µM (inactive) | > 100 µM (inactive) | 32 µM (inactive) | 33 µM (inactive) | 28.2 µM (inactive) | 37.1 µM (inactive) | 76.4 µM (inactive) | > 100 µM (inactive)
CN(C)C(=O)C(F)(F)C(c1ccc(Br)cc1)C1C(=O)N(C)C(=O)N(C)C1=O (stereo not drawn) | > 100 µM (inactive) | > 100 µM (inactive) | > 100 µM (inactive) | > 100 µM (inactive) | > 100 µM (inactive) | > 100 µM (inactive) | > 100 µM (inactive) | > 100 µM (inactive) | > 100 µM (inactive) |  | > 100 µM (inactive) | > 100 µM (inactive) | > 100 µM (inactive) |  | > 100 µM (inactive) |  | > 100 µM (inactive)
Cc1ccc(C(=O)Cc2nc3c([nH]c2=O)c(C)nn3-c2ccccc2)c(C)c1 | 3.55 µM (inactive) |  | > 10 µM (inactive) | > 10 µM (inactive) | > 10 µM (inactive) | > 10 µM (inactive) | > 10 µM (inactive) | > 10 µM (inactive) | > 10 µM (inactive) | > 10 µM (inactive) | > 10 µM (inactive) | > 10 µM (inactive) | > 10 µM (inactive) | > 10 µM (inactive) | > 10 µM (inactive) | > 10 µM (inactive) | 5.45 µM (inactive)
COc1ccc(/C=C2\C[C@H]3[C@@H]4CCC5=C/C(=N/O)CC[C@]5(C)[C@H]4CC[C@]3(C)\C2=N\O)cc1OC | 17.8 µM (inactive) | 33.1 µM (inactive) | 14.5 µM (inactive) | 8.43 µM (inactive) | 63.4 µM (inactive) | 40.2 µM (inactive) | 6.87 µM (inactive) |  | 18.8 µM (inactive) | 11.6 µM (inactive) | 43.4 µM (inactive) | 10.7 µM (inactive) |  | > 100 µM (inactive) | 4.49 µM (inactive) | 6.14 µM (inactive) | 7.66 µM (inactive)
COc1ccc(C(=O)Nc2ccc(O)c(=O)cc2)cc1 | 51.1 µM (inactive) | < 0.01 µM (active) | 23.7 µM (inactive) | 36.9 µM (inactive) | 25.6 µM (inactive) | 78 µM (inactive) | 21.5 µM (inactive) | 42.3 µM (inactive) | 43.4 µM (inactive) |  | 89.7 µM (inactive) | 40 µM (inactive) | 53 µM (inactive) | 29.2 µM (inactive) | 26.9 µM (inactive) | 17.5 µM (inactive) | < 0.01 µM (active)
CCOC(=O)C1=NN(c2ccc(Cl)cc2)C2=CC(C)=NN(C)C(=S)N21 |  |  | 72.6 µM (inactive) | 19.9 µM (inactive) | 79.3 µM (inactive) | 59.7 µM (inactive) | > 10 µM (inactive) | 44.5 µM (inactive) | > 100 µM (inactive) | > 100 µM (inactive) | 42.1 µM (inactive) | > 100 µM (inactive) | 22 µM (inactive) | 27.5 µM (inactive) | > 100 µM (inactive) | > 100 µM (inactive) | 23.9 µM (inactive)
CC(=C(c1ccccc1)c1ccccc1)N1C(=O)CC(=O)N1C |  |  | > 100 µM (inactive) | 21.1 µM (inactive) | > 100 µM (inactive) | 24.7 µM (inactive) | 43.8 µM (inactive) |  | 41.1 µM (inactive) | 48.3 µM (inactive) | > 100 µM (inactive) | 21.9 µM (inactive) | 43.3 µM (inactive) | 20.3 µM (inactive) | 32.6 µM (inactive) |  | 78.2 µM (inactive)
Cc1ccnc2nc(N)ccc12 | > 100 µM (inactive) | > 100 µM (inactive) | > 100 µM (inactive) | > 100 µM (inactive) | > 100 µM (inactive) | > 100 µM (inactive) |  | > 100 µM (inactive) | > 100 µM (inactive) | > 100 µM (inactive) | > 100 µM (inactive) | > 100 µM (inactive) | > 100 µM (inactive) | > 100 µM (inactive) | > 100 µM (inactive) | > 100 µM (inactive) | > 100 µM (inactive)
COc1ccc2c(c1)c1c(n2CCN(C)C)-c2ccccc2CC1 | 16.1 µM (inactive) |  | 16.4 µM (inactive) | 14.3 µM (inactive) | 15.9 µM (inactive) | 15.6 µM (inactive) | 18.3 µM (inactive) | 13.6 µM (inactive) | 16.5 µM (inactive) | 16 µM (inactive) | 18 µM (inactive) | 12.6 µM (inactive) | 15.9 µM (inactive) | 17.6 µM (inactive) | 13.7 µM (inactive) |  | 14.5 µM (inactive)
N=C(N)SCCC(=O)CCSC(=N)N |  | 5.5 µM (inactive) | > 100 µM (inactive) |  | > 100 µM (inactive) | > 100 µM (inactive) | > 100 µM (inactive) | > 100 µM (inactive) | > 100 µM (inactive) | > 100 µM (inactive) | > 100 µM (inactive) | > 100 µM (inactive) | > 100 µM (inactive) | > 100 µM (inactive) |  | > 100 µM (inactive) | > 100 µM (inactive)
CC1(C)CN=C(Nc2ccc(F)cc2)S1 | > 100 µM (inactive) |  | > 100 µM (inactive) | > 100 µM (inactive) | > 100 µM (inactive) | > 100 µM (inactive) | > 100 µM (inactive) |  | > 100 µM (inactive) | > 100 µM (inactive) | > 100 µM (inactive) | > 100 µM (inactive) | > 100 µM (inactive) | > 100 µM (inactive) | > 100 µM (inactive) | > 100 µM (inactive) | > 100 µM (inactive)
CCN(CC)CCCNc1nc(=O)[nH]c(C)c1C(=O)Nc1ccc2c(c1)c1ccccc1n2CC | > 100 µM (inactive) |  | > 100 µM (inactive) | > 100 µM (inactive) | > 100 µM (inactive) | > 100 µM (inactive) | > 100 µM (inactive) | > 100 µM (inactive) | > 100 µM (inactive) | > 100 µM (inactive) | > 100 µM (inactive) | > 100 µM (inactive) | > 100 µM (inactive) |  | > 100 µM (inactive) |  | > 100 µM (inactive)
CN(C)c1nc(N(C)C)nc(N(C)C23CC4CC(CC(C4)C2)C3)n1 | 40.5 µM (inactive) | > 100 µM (inactive) | 41.3 µM (inactive) | > 100 µM (inactive) | 41.1 µM (inactive) | 33.3 µM (inactive) | 37.6 µM (inactive) | 23.8 µM (inactive) | 40.2 µM (inactive) | 21 µM (inactive) | 13.4 µM (inactive) | 24.5 µM (inactive) |  |  | 23.7 µM (inactive) | 39.1 µM (inactive) | 31.4 µM (inactive)
Cc1cc(=O)n2nc(CCl)sc2n1 | 15.7 µM (inactive) |  | 14.3 µM (inactive) | 10.3 µM (inactive) | 18.1 µM (inactive) | 11.2 µM (inactive) | 13.8 µM (inactive) | 20.7 µM (inactive) | 12.7 µM (inactive) | 14 µM (inactive) | 23.2 µM (inactive) | 13.3 µM (inactive) | 10.2 µM (inactive) | 17 µM (inactive) | 10.6 µM (inactive) | 13.1 µM (inactive) | 15.3 µM (inactive)
O=C(O)C(F)(F)C(F)(F)C(F)(F)C(F)(F)C(F)(F)C(F)(F)C(F)(F)C(F)(F)F | 83.9 µM (inactive) | 38.3 µM (inactive) | 65.3 µM (inactive) | > 100 µM (inactive) | 47.6 µM (inactive) | 28.1 µM (inactive) | 57 µM (inactive) | 46.2 µM (inactive) | 48.3 µM (inactive) | 40.4 µM (inactive) | 61.4 µM (inactive) | 42.1 µM (inactive) | > 100 µM (inactive) | 29.9 µM (inactive) |  |  | 57.3 µM (inactive)
CC12CCC(=O)[C@@]1(C)CCCC2O (stereo partly drawn) | > 100 µM (inactive) |  | > 100 µM (inactive) | > 100 µM (inactive) | > 100 µM (inactive) | > 100 µM (inactive) | > 100 µM (inactive) | > 100 µM (inactive) |  | > 100 µM (inactive) | > 100 µM (inactive) | > 100 µM (inactive) | > 100 µM (inactive) | > 100 µM (inactive) | > 100 µM (inactive) | > 100 µM (inactive) | > 100 µM (inactive)
CC=C/C=C/[C@@H]1O[C@](O)([C@H](CC)C(=O)NC/C=C/C=C(\C)[C@@H](OC)[C@@H](C)[C@@H]2O[C@H](/C=C/C=C/C=C(\C)C(=O)c3c(O)cc[nH]c3=O)[C@H](O)[C@@H]2O)[C@H](O)[C@H](O)C1(C)C |  | > 100 µM (inactive) | > 100 µM (inactive) |  |  | > 100 µM (inactive) | > 100 µM (inactive) |  | > 100 µM (inactive) |  | > 100 µM (inactive) | > 100 µM (inactive) | > 100 µM (inactive) | 43.4 µM (inactive) | 88.7 µM (inactive) | > 100 µM (inactive) | 
